Values after ≈ are worked out from the molar mass of the structure shown. “Also recorded” adds a separate entry of the source. Read-outs that look alike come from different tables or passages of the source.
What was measured:
[1] = Stability test of compound 2 in fresh rat whole blood; format: in vitro ADME; parameters: half-life: dose or concentration left out as unconfirmed
Procedure: Preparation of the tested product: Compound 2 was dissolved with an appropriate amount of dimethyl sulfoxide (DMSO) to obtain a 400 μM solution.
1) Fresh rat whole blood is added to the EP tube and shaken gently to mix.
2) Pre-incubate the EP tube in a water bath at 37° C. for 5 minutes.
3) Add Compound 2 and incubate at 37° C.
4) Every 50 μL of sample was taken from the sample tube to the stop tube (containing 5 μL internal standard, 5 μg/mL tolbutamide) at 0, 3 min, 6 min, 15 min, 30 min, and 60 min. 150 μL of acetonitrile was added and shaked to stop reaction, which was incubated in PBS system for 0 and 60 min.
5) Centrifuge for 5 min at 4° C. (13000 r/min), aspirate the supernatant, and analyze the sample.
50 μL of rat whole blood was added with 5 μL of internal standard working solution (5 μg/mL tolbutamide). 150 μL of acetonitrile was used to precipitate the proteins. The sample was centrifuged at 13,000 rpm and 4° C. for 5 min. The upper organic phase was taken and filtered with a 0.22 μM microporous membrane, which was then analyzed by LC-MS/MS. […]
The In residual rate of compound 2 in the incubation system was plotted against the incubation time, and the slope k was obtained by linear regression. T1/2 (min) was calculated according to the formula (T1/2=−0.693/k).

[2] = Metabolic stability in human liver microsomes; format: in vitro ADME
Procedure: Preparation of the test sample: Compound 1 (prepared in Example 5), 2 (prepared in Example 4), and 5 (cycloastragenol, purchased from Chengdu Jintaihe Company) were dissolved with an appropriate amount of DMSO to obtain a concentration of 10 mM solution.
1) The compound was diluted with DMSO to 0.5 mM, and diluted to 1/20 with PBS before the experiment.
2) Human liver microsomes and potassium phosphate buffer were added to the EP tube respectively and mixed by gentle shaking.
3) Pre-incubate the EP tube in a metal bath at 37° C. for 5 minutes. 4) Compound 1, 2 or 5 were added and incubated at 37° C.
5) Take 100 μl of sample from the tube at 0, 60, 120, 240, and 360 minutes respectively, and add the sample to the stop tube (containing 100 μl of cooled acetonitrile solution). The mixture was shaken vigorously to terminate the reaction and then placed it in a −30° C. refrigerator until analysis.
6) Centrifuge at 14300 r/min and 4° C. for 10 minutes, aspirate the supernatant and place it in a −30° C. refrigerator until analysis.
Column: Shim-pack XR-ODS II, 2.0×75 mm; mobile phase: mobile phase B: aqueous solution containing 0.2% formic acid; mobile phase A: acetonitrile solution; mobile phase ratio: […]

[3] = Metabolic stability in rat liver microsomes; format: in vitro ADME
[4] = tested on: chronic heart failure mice; assay: Pharmacodynamic comparison of LCZ696 and compound 2 in chronic heart failure mice (echocardiography); format: in vivo; conditions: for CO / EF / FS / HR: Compound 2 group; for EF, day 28 vs day 0 (words) / short-axis shortening rate (FS %), day 28 vs day 0 (words): chronic heart failure mice, p<0.0005 (FIG. 8)
Description: With EF<50%, chronic heart failure mice were selected.
The mice were detected by cardiac ultrasound after 28 days of administration.

[5] = Solubility test in water and FaSSIF; format: physicochemical; conditions: thermodynamic from solid, 37° C., up to 24 hours, read-out: Solubility
[6] = compared with compound 5 (cycloastragenol)
[7] = chronic heart failure mice (FIG. 9)

CC(C)(O)[C@@H]1CC[C@](C)([C@H]2[C@@H](O)C[C@@]3(C)[C@@H]4C[C@H](O)[C@H]5C(C)(C)C(F)(F)CC[C@@]56C[C@@]46CC[C@]23C)O1 [Compound 2, (2aR,3R,4S,5aS,5bS,7S,7aR,11aR,12aS)-9,9-difluoro-3-((2R,5S)-5-(2-hydroxypropan-2-yl)-2-methyltetrahydrofuran-2-yl)-2a,5a,8,8-tetramethyltetradecahydro-1H,12H-cyclopenta[a]cyclopropa[e]phenanthrene-4,7-diol]
half-life ([1]; fresh rat whole blood, rat whole blood, 37° C., 0-60 min, read-out: In vitro T1/2): 640 min
stability in rat whole blood ([1]; incubation 3, 6, 15, 30 and 60 min): relatively stable
metabolic stability in human liver microsomes [2, 6]: relatively stable; also recorded: more stable than cycloastragenol
half-life at 5 µM ([2]; human, liver microsomes, 5 μM compound, 1 mg/mL microsomes, 37° C.): 438 min
metabolic stability in rat liver microsomes [3, 6]: relatively stable; also recorded: more stable than cycloastragenol
half-life at 5 µM ([3]; liver microsomes, 5 μM compound, 37° C.): 518 min
CO ([4]; Day 0): 33.39 ± 2.45 mL/min
EF ([4]; Day 0): 25.04 ± 1.87%
FS ([4]; Day 0): 9.65 ± 0.84 %
HR ([4]; Day 0): 564.5 ± 14.96 times/min
CO ([4]; Day 28): 48.09 ± 3.69 mL/min
EF ([4]; Day 28): 43.83 ± 3.62 %
FS ([4]; Day 28): 18.86 ± 2.17%
HR ([4]; Day 28): 579.3 ± 12.44 times/min
Cardiac output per minute (CO), day 28 vs day 0 (words) [4, 7]: significantly improved
Heart rate (HR), day 28 vs day 0 [4, 7]: no significant change
Cardiac output per minute (CO), day 28 vs day 0 (words) ([4]; chronic heart failure mice (FIG. 9), listed as compound 2): increased significantly
EF, day 28 vs day 0 (words) [4]: significantly improved
short-axis shortening rate (FS %), day 28 vs day 0 (words) [4]: significantly improved
EF, day 28 vs day 0 (words) ([4]; listed as compound 2): significantly increased
short-axis shortening rate (FS %), day 28 vs day 0 (words) ([4]; listed as compound 2): more significant
left ventricular ejection fraction EF % increased by ([4]; compound 2 group, after 28 days of administration): 75.04%
Solubility ([5]; FaSSIF (pH 6.5)): 15 µg/mL (≈ 29.4 µM)
Solubility ([5]; Water): 2 µg/mL (≈ 3.92 µM)

Source: patent US20220177511A1, “SERIES OF HALOGENATED TETRACYCLIC TRITERPENE DERIVATIVES AND THEIR PREPARATION AND APPLICATION” (SHANGHAI KING-X BIOTECH CO., LTD, priority 2019, published 2022)
